The record followed here is article PMC9566605 (Cancer cell, 2022).

Data set [1] addresses T1, H-2K^b (Mus musculus, UniProt P01901). Put plainly: RMA-S binding assay. Conditions: 2.5 mM PNT before peptide loading.
Data set [2] deals with catalytic subunits of proteasomes. Put plainly: Amount of catalytic subunits of proteasomes in EG7 tumor cells. Format: cell-based, mouse. Conditions: EG7 tumor cells treated with PNT or bortezomib.
Data set [3] relates to H-2K^b associated peptides of EG.7 cells. Format: cell-based, mouse.
In the next data set the test system is proteasome. Put plainly: Proteasomal activity in tumor cell lysates. The format is biochemical, mouse.
Data set [4] deals with T1, H-2K^b. Put plainly: RMA-S dissociation assay. Format: binding. Conditions: PNT before loading with peptides.
The test system of data set [5] is human melanoma UACC903 cell line. Put plainly: SILAC LC-MS/MS of HLA-A, -B, -C bound peptides after PNT. The following applies: UACC903 cells.
The test system of a further data set is EL4 cells. Put plainly: Empty MHC class I detection by […] loading of EL4 cells. The following applies: EL4 cells treated with PNT, n=4. Format: cell-based, mouse.
In a further data set the test system is EL4 tumor cells. The following applies: pre-treatment of tumor cells with PNT; 5:1 ratio, annexin V/DAPI, 5 and 16 hours.
The subject of another data set is EG.7 cells. Put plainly: Viability and surface marker expression of treated EG.7 cells. The format is cell-based, mouse.
Another data set relates to B16F10-iNOS cells. Put plainly: CTL assay of Pmel-1 cells against mixed B16F10-control and B16F10-iNOS cells. Format: cell-based, mouse. The following applies: B16F10-control and B16F10-iNOS mixed 1:1, activated Pmel-1 cells, pre-treated with RTA408.
The test system of data set [6] is nitrotyrosine (NT) in LLC tumor tissue. Put plainly: Immunofluorescent NT staining of LLC tumor tissue. Conditions: LLC tumor-bearing mice treated with RTA408. Format: in vivo, mouse.
Another data set has as its target T2, H-2D^b (Mus musculus, UniProt P01899).
T2 sequence (P01899 25-362): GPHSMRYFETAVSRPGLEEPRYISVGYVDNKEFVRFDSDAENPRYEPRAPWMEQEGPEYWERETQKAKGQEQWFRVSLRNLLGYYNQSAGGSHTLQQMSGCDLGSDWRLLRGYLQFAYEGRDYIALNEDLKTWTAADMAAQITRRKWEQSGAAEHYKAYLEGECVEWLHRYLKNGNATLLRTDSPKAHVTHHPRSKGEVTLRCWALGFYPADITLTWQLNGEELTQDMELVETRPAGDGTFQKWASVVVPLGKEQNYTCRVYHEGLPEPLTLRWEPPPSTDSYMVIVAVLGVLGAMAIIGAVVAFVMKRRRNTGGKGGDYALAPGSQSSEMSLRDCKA
T2 sequence (P01887 21-119 partner): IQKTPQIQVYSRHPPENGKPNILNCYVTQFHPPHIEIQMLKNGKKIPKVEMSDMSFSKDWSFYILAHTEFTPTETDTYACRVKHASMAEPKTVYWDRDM
Put plainly: RMA-S dissociation assay, H-2D^b. The format is binding.

T1 sequence (P01901 whole entry, looked up): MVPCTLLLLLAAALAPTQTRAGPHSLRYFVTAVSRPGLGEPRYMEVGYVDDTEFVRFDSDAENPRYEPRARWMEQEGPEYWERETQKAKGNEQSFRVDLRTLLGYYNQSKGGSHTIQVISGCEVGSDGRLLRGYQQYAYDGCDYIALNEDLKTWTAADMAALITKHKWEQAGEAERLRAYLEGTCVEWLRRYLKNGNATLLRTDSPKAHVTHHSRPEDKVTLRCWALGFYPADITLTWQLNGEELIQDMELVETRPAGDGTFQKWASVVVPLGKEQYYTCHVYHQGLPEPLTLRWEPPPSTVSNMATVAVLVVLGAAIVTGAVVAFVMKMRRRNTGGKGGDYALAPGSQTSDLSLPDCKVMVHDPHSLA

Turning to `O=NOO` [PNT, peroxynitrite], the “effect of PNT pre-treatment of RMA-S cells on binding of the peptides” value at H-2K^b [1] is “only a small decrease”. In addition, the “amount of 6 catalytic subunits of proteasomes” value in [2] is given as “did not affect”. Further, the “recovery of H-2K^b peptide profile” value in data set [3] (2.5 mM PNT on ice 5 min, 16 h after the treatment) is “returned to the pre-treatment level”. Also, the “change in H-2K^b peptide profile” value in data set [3] (2.5 mM PNT on ice 5 min, right after the treatment (0 min)) was “no substantial changes”. Moreover, the “effect on proteasomal activity in IFN-γ pre-treated vs non-pre-treated cells” value in the data set with proteasome (EG7 and LLC cells, 100 ng/ml IFN-γ 24 hours, then PNT) is recorded as “the same”. The “recovery of proteasomal activity over time” value in the data set with proteasome (EG.7 cells, 2.5 mM PNT, chymotrypsin, trypsin and caspase-like activities) is given as “almost completely restored by 22 hours”. The “proteasome types and activities affected” value in the data set on proteasome (EL4 and LLC cell lines, 2.5 mM PNT 5 min on ice, proteasome-specific fluorogenic substrates) was “affected mostly chymotrypsin- and trypsin-like activities associated with constitutive proteasomes”. For the same molecule, the proteasomal activity result in the data set with proteasome (tumor cells treated with 2.5 mM PNT for 5 min, n=3) is “profound decrease”. Besides, on H-2K^b [4], the “effect of PNT treatment of RMA-S cells on dissociation rates” value is “no detectable effect”. In addition, the “change in HLA-A, -B, -C bound peptide profile” value in data set [5] is reported as “substantially changed the peptide profile”. The “total H-2Kb expression, PNT-treated vs control cells” value in the data set on EL4 cells was “no differences”. Further, the “killing of tumor cells by CTLs generated against PNT-resistant peptides” value in the data set with EL4 tumor cells is given as “did not affect killing”. In the data set with EG.7 cells (2.5 mM PNT), the “NT (nitrotyrosine) expression” value is given as “substantial up-regulation”, the cell viability entry was “did not affect” and the “expression of MHCI H-2K^b molecules” value is given as “did not affect”.
On to `CC1(C)CC[C@]2(NC(=O)C(C)(F)F)CC[C@]3(C)[C@H](C(=O)C=C4[C@@]5(C)C=C(C#N)C(=O)C(C)(C)[C@@H]5CC[C@]43C)[C@@H]2C1` [RTA408, Omaveloxolone], for which the “resistance of B16F10-iNOS cells to killing by CTLs” value in the data set on B16F10-iNOS cells is given as “completely abrogated resistance”. The “NT staining in tumor tissues” value in data set [6] is “reduced NT staining”.
`CC(C)C[C@H](NC(=O)[C@H](Cc1ccccc1)NC(=O)c1cnccn1)B(O)O` [bortezomib]: the “amount of 6 catalytic subunits of proteasomes” value in [2] was “did not affect”. Further, the “representation of MHCI peptides vs non-treated cells” value in data set [3] (EG.7 cells, 15 nM bortezomib) was “substantial decrease”. The proteasomal activity entry with proteasome (EG.7 cells, 15 nM bortezomib, N=5) is recorded as “modest inhibition”. In addition, in the data set on EG.7 cells (15 nM bortezomib), the “expression of MHC class I (H2K^b)” value was “did not affect” and the “viability of tumor cells” value is on record as “did not affect”.
On to EGSRNQDWL, for which, at H-2D^b, the “dissociation from H-2D^b” value is listed as “dissociated significantly faster”.
